From patent US20180326101A1, “COMPOUND AND PHARMACEUTICAL COMPOSITION FOR TARGETED DRUG DELIVERY” (SeeCure Taiwan Co., Ltd., priority 2017, published 2018)

Molecular target: T1, XC transporter (Homo sapiens, UniProt Q9UPY5)
T1 construct: endogenous in cells; host or cells: U251 cell line
T1 sequence (Q9UPY5 1-501): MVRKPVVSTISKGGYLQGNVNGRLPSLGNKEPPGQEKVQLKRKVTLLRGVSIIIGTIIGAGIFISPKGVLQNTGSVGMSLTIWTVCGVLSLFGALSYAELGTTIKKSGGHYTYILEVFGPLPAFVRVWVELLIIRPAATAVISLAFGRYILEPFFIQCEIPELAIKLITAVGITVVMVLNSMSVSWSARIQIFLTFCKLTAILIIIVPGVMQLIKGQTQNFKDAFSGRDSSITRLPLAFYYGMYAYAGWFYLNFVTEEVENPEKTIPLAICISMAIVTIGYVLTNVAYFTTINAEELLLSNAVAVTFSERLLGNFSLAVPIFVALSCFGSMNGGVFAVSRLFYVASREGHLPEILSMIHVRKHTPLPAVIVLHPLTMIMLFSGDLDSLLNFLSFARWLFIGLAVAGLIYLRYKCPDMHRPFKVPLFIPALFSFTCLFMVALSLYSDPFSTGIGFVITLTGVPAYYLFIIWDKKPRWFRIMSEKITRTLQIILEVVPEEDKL
T1 sequence (P08195 1-529 partner): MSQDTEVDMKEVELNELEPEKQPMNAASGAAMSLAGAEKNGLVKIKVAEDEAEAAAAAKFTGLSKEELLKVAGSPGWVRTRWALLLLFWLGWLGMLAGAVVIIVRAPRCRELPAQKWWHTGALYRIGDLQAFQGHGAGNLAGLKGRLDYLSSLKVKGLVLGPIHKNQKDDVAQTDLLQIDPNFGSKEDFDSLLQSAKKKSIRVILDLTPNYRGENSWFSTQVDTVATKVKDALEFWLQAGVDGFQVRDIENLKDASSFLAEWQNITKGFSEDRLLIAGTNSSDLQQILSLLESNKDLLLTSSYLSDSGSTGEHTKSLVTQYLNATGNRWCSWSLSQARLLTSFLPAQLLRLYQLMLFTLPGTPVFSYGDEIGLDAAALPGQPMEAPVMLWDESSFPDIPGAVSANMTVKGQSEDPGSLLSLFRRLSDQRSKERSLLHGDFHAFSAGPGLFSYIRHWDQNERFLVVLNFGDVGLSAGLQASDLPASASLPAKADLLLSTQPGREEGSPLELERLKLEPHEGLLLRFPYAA
Assay: Blocking studies of cellular uptake with sulfasalazine (SAS) or cysteine
Type: cell-based
Conditions: U251 cells, 2 hours incubation
Method: The cellular uptake of the ^99mTc-SAC-A and the ^99mTc-SAC-B compounds were performed using an U251 cell line. The cells were planted onto tissue culture plates at a concentration of 350,000 cells per well for the uptake and blocking studies. The cells were cultured in Eagle's MEM with Earle's BSS (90%) and fetal bovine serum (10%) under standard culture conditions (37° C., 95% humidified air and 5% CO2). After seeding, the cells were incubated at 37° C. for 48 hours to allow for cell attachment and growth. After reaching approximately 70% confluency of cells, the cells are ready for use in the cellular uptake/blocking experiments.
Specifically, upon reaching 70% cell confluency, the growth media were aspirated and the cells were washed twice with phosphate buffered saline (PBS). Serum-free media and the ^99mTc-SAC-A compound or ^99mTc-SAC-B compound obtained above were respectfully added to the each of the wells for performing the cellular uptake experiment. For the blocking studies, the cells were pre-treated with 500 μM and 1000 μM of sulfasalazine (SAS; a XC transporter specific inhibitor) or 500 μM and 1000 μM of cysteine (a competitive inhibitor) for 30 minutes prior to the addition of the ^99mTc-SAC-A or ^99mTc-SAC-B compounds. […] After 2 hours, the cells in each of the wells are washed with PBS, the cells are then collected and its radioactivity were counted using a gamma counter. […]

cellular uptake when blocking agent cysteine (competitive inhibitor) was added (500 μM and 1000 μM cysteine pre-treatment 30 min): mostly inhibited
cellular uptake when blocking agent SAS (XC transporter specific inhibitor) was added (500 μM and 1000 μM sulfasalazine pre-treatment 30 min): mostly inhibited
Structure (SMILES): N[C@@H](CS[C@@H](CC(=O)O)C(=O)O)C(=O)O [SAC-B]
